In patent US20100112089A1, “PEPTIDE COMPOUND AND USE THEREOF” (Takeda Pharmaceutical Company Limited, priority 2008, published 2010):
Counter-ions that a name gives are not always drawn. Square brackets hold non-standard residues; d marks the D form. Peptide text beside a SMILES is read from it. dPhe(F5) = N[C@H](Cc1c(F)c(F)c(F)c(F)c1F)C(=O)O; dBpa = N[C@H](Cc1ccc(C(=O)c2ccccc2)cc1)C(=O)O; dCha = N[C@H](CC1CCCCC1)C(=O)O

Test system: patients with locally advanced or metastatic solid tumors
Test: Phase I single agent study of CBP501 (Study A): MTD, DLT, safety, antitumor activity
Assay type: in vivo, human
From the text: PK was examined in cycle (cy) 1. MTD is the level below that where 2 of 3-6 patients (pts) have DLT during cy 1-2.
A minimum of 3 patients were to be enrolled at each dose level, and 6 in the event of DLT.
(1) Neutropenia Gr 4 lasting 7 days (5 days in combination study) or Gr 3-4 neutropenia with fever and/or infection, (2) Thrombocytopenia Gr 4 (or grade 3 with bleeding), (3) Treatment-related non-hematological toxicity Gr 3 or 4 (excluding Gr 3 vomiting or diarrhea with sub-optimal prophylactic and curative treatment), and (4) Dosing delay greater than 2 weeks or treatment discontinuation due to treatment-emergent adverse events or related severe laboratory abnormalities.
The MTD was defined as the dose level below that in which DLT was observed during the first 2 cycles in at least 2 out of the 3-6 patients assessable for determination of MTD. The MTD was to be the RD for future studies. Patients evaluable for MTD were those who completed 2 treatment cycles or experienced DLT during the first 2 cycles.
(1) Echocardiogram or MUGA scan (baseline and every 2 cycles), (2) Cardiac enzymes (CPK-MB, CPK-MM, troponin; baseline and prior to each administration), and (3) ECG (before infusion, end of infusion, and 1 hr after infusion end).
(1) Pathologically-confirmed, locally advanced or metastatic solid tumors, refractory to standard therapy or for which conventional therapy is not reliably effective, (2) Presence of measurable disease according to RECIST criteria was not required, but was recommended in additional patients entered at MTD, (3) Age ≧18 years; Eastern Cooperative Oncology Group (ECOG) PS 0-2; Life expectancy >3 months, (4) Adequate organ function (hematological, hepatic, renal, metabolic), and (5) Signed informed consent

[1] = cardiac monitoring, both studies
[2] = single agent, 9.5 mg/m^2, 3 pts
[3] = single agent, 16.9 mg/m^2, 3 pts
[4] = single agent, 22.5 mg/m^2, 7 pts

Q: Which “QTc > 500 ms (patients)” value (Single agent (16 pts), centralized ECG review) does the source give for N=C(N)NCCC[C@@H](NC(=O)[C@@H](CCCNC(=N)N)NC(=O)[C@@H](CCC(N)=O)NC(=O)[C@@H](CCCNC(=N)N)NC(=O)[C@@H](CCCNC(=N)N)NC(=O)[C@@H](CCCNC(=N)N)NC(=O)[C@@H](CC1CCCCC1)NC(=O)[C@@H](Cc1c(F)c(F)c(F)c(F)c1F)NC(=O)[C@@H](CO)NC(=O)[C@@H](Cc1c[nH]c2ccccc12)NC(=O)[C@@H](CO)NC(=O)[C@H](N)Cc1ccc(C(=O)c2ccccc2)cc1)C(=O)O [CBP501, H-(D)p-Benzoylphenylalanyl-(D)seryl-(D)tryptophyl-(D)seryl-(D)pentafluorophenylalanyl-(D)cyclohexylalanyl-(D)arginyl-(D)arginyl-(D)arginyl-(D)glutaminyl-(D)arginyl-(D)arginine acetate salt] (H-[dBpa][dS][dW][dS][dPhe(F5)][dCha][dR][dR][dR][dQ][dR][dR]-OH) here?
A: The value was 0.

Q: What about the “Abdominal pain Gr 1-2” value (Single-agent (n = 30)) of the same compound?
A: The value was 7.

Q: And the “Abdominal pain Gr 3” value (Single-agent (n = 30))?
A: The value was 2.

Q: What about the “Allergy (includes infusion reaction, flushing, rash, etc.) Gr 1-2” value (Single-agent (n = 30)) of the same compound?
A: Its value is 18.

Q: What about the “Diarrhea Gr 1-2” value (Single-agent (n = 30)) of the same compound?
A: Its value is 5.

Q: What about the “Diarrhea Gr 3” value (Single-agent (n = 30)) of the same compound?
A: Its value is 1.

Q: And the “Fatigue Gr 1-2” value (Single-agent (n = 30))?
A: Its value is 14.

Q: And the “Fatigue Gr 3” value (Single-agent (n = 30))?
A: The value was 1.

Q: What about the “Headache Gr 1-2” value (Single-agent (n = 30)) of the same compound?
A: The value was 3.

Q: What about the “Increased troponin Gr 3” value (Single-agent (n = 30)) of the same compound?
A: Its value is 1.

Q: And the “Nausea/Vomiting Gr 1-2” value (Single-agent (n = 30))?
A: Its value is 5.

Q: And the “Neutropenia Gr 1-2” value (Single-agent (n = 30))?
A: Its value is 3.

Q: And the “QTc prolongation Gr 1-2” value (Single-agent (n = 30))?
A: Its value is 10.

Q: What about the “Thrombocytopenia Gr 1-2” value (Single-agent (n = 30)) of the same compound?
A: Its value is 4.

Q: And the “Anemia Gr 1-2” value (Single-agent (n = 30), 16 with baseline anemia)?
A: The value was 22 (16*).

Q: And the “patients with QTc prolongation by >60 msec” value (both studies, centralized ECG review (16 + 24 patients))?
A: Its value is 4.

Q: What about the “start of allergic reaction into the infusion” value (both studies, rash, hot flushes, urticaria) of the same compound?
A: Its value is 10 to 60 min.

Q: And the “pts with QTcB >500 msec” value [1]?
A: The value was 1.

Q: What about the “pts with QTcB prolongation >60 msec” value [1] of the same compound?
A: Its value is 2.

Q: And the “time for troponin to return to normal levels” value (patient at DL 8, single-agent, Gr 3 troponin elevation)?
A: The value was “within one week”.

Q: What about the tolerability (single agent) of the same compound?
A: The tolerability was “well tolerated”.

Q: And the “Patients with allergic reaction Gr1” value (single agent, 0.9 mg/m^2, 4 pts)?
A: Its value is 1.

Q: What about the “Patients with allergic reaction Gr2” value (single agent, 7.2 mg/m^2, 3 pts) of the same compound?
A: Its value is 3.

Q: What about the “Patients with allergic reaction Gr1” value [2] of the same compound?
A: Its value is 1.

Q: And the “Patients with allergic reaction Gr2” value [2]?
A: The value was 2.

Q: What about the “Patients with allergic reaction Gr1” value [3] of the same compound?
A: Its value is 1.

Q: And the “Patients with allergic reaction Gr2” value [3]?
A: Its value is 1.

Q: What about the “Patients with allergic reaction Gr1” value [4] of the same compound?
A: The value was 3.

Q: And the “Patients with allergic reaction Gr2” value [4]?
A: The value was 4.

Q: What about the “pts with Gr 1-2 allergy” value (single agent, 30 pts treated (43%), interim summary) of the same compound?
A: The value was 13.

Q: What about the “Patients with allergic reaction Gr1” value (single agent, TOTAL, 30 pts) of the same compound?
A: The value was 7.

Q: And the “Patients with allergic reaction Gr2” value (single agent, TOTAL, 30 pts)?
A: The value was 11.

Q: And the MTD (single agent, doses up to 22.5 mg/m^2)?
A: Its MTD is “not reached”.

Q: And the DLT (single-agent, dose 22.5 mg/m^2, 7 pts, 11 cycles)?
A: Its DLT is 1.
